Measured values taken from ChEMBL document CHEMBL2021834, “Novel sulfonylurea derivatives as H3 receptor antagonists. Preliminary SAR studies” (Eur J Med Chem, 2012).

Target: Voltage-gated inwardly rectifying potassium channel KCNH2 (Homo sapiens, UniProt Q12809)
Sequence (Q12809 whole entry): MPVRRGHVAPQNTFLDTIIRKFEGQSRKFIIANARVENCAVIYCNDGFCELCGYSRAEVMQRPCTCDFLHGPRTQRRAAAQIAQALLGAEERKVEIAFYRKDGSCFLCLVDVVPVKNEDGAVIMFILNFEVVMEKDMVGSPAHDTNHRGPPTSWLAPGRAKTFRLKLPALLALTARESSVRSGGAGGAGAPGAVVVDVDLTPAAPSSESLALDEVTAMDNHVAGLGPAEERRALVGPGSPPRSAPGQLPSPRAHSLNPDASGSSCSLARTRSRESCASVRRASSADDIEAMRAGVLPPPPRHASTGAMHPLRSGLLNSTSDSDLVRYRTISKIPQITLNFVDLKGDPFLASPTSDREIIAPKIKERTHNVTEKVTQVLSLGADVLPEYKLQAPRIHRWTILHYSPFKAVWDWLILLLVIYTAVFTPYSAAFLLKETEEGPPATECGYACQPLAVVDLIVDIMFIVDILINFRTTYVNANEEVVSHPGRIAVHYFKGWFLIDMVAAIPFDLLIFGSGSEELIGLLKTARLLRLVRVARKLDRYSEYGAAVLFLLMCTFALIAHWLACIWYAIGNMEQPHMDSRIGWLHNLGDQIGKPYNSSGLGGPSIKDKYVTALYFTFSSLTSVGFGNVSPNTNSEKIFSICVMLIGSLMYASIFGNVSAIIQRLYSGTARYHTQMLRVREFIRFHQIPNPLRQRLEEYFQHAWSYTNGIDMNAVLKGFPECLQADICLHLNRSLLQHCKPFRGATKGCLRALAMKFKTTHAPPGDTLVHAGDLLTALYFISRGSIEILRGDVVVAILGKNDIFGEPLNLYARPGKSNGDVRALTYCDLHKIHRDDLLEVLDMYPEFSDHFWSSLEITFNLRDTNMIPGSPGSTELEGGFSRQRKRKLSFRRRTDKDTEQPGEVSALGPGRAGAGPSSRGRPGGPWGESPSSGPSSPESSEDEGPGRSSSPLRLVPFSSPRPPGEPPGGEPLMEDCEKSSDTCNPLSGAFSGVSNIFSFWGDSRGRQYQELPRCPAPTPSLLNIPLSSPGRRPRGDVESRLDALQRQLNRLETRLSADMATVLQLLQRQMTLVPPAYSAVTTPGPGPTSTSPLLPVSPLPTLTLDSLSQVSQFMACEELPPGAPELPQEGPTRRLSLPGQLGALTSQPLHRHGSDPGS
Description: Displacement of [3H] dofetilide from human ERG channel expressed in HEK293 cells after 45 mins by scintillation counting method

Compound | IC50 [µM]
O=C(Nc1ccc(C(F)(F)F)cc1)NS(=O)(=O)c1ccc(OCCCCN2CCCC2)cc1 | 49.1
O=C(Nc1cc(Cl)ccc1Cl)NS(=O)(=O)c1ccc(OCCCCN2CCCCC2)cc1 | > 100
CCOC(=O)C1CCN(CCCCOc2ccc(S(=O)(=O)NC(=O)Nc3ccccc3)cc2)CC1 | > 100
O=C(Nc1cccc2ccccc12)NS(=O)(=O)c1ccc(OCCCN2CCCC2)cc1 | > 100
O=C(Nc1ccccc1C(F)(F)F)NS(=O)(=O)c1ccc(OCCCN2CCCCC2)cc1 | > 100
COc1ccc(NC(=O)NS(=O)(=O)c2ccc(OCCCN3CCCCC3)cc2)cc1 | > 100
Cc1ccc(NC(=O)NS(=O)(=O)c2ccc(OCCCN3CCCCC3)cc2)cc1 | > 100
CCOC(=O)C1CCN(CCCOc2ccc(S(N)(=O)=O)cc2)CC1 | 76.5
CCOC(=O)C1CCN(CCCCOc2ccc(S(N)(=O)=O)cc2)CC1 | 18.8
CC(C)NC(=O)NS(=O)(=O)c1ccc(OCCN2CCCC2)cc1 | > 100
O=C(Nc1ccc(C(F)(F)F)cc1)NS(=O)(=O)c1ccc(OCCN2CCCC2)cc1 | > 100
O=C(Nc1ccc(C(F)(F)F)cc1)NS(=O)(=O)c1ccc(OCCN2CCCCC2)cc1 | > 100
CCOC(=O)C1CCN(CCOc2ccc(S(=O)(=O)NC(=O)Nc3ccccc3)cc2)CC1 | > 100
O=C(Nc1ccccc1)NS(=O)(=O)c1ccc(OCCCN2CCCCC2)cc1 | > 100
